Patent publication US20260027068A1, “METHODS OF ADM[…]-KETAMINE” (Perception Neuroscience, Inc., priority 2022, published 2026)

Legend:
rats [1] = experiment: Anhedonic or negative affective side effects
[2] = Oxygen saturation (pulse oximetry, SpO2)
Experimental: The Investigational Medicinal Product (IMP) R(−)-ketamine hydrochloride in sterile water for intravenous injection was investigated as an […] treatment of TRD. The International Union of Pure and Applied Chemistry (IUPAC) name is of the IMP is (2R)-2-(2-chlorophenyl)-2-(methylamino)cyclohexan-1-one. Subjects received the solution at either 30 mg or 60 mg dose, or a placebo. The IMP or placebo was administered on Day 1 as a single IV infusion via an electronic infusion pump over 40 minutes. The duration of study participation for each subject was up to 29 days including a screening period, a 3-day in-clinic visit, and 2 follow-up visits. 101 subjects were enrolled in approximately 20 study centers in the EU and the US.
Tympanic or temporal temperature, heart rate, blood pressure (SBP/DBP), respiratory rate, and SpO2 were assessed. Blood pressure and pulse measurements will be assessed with a completely automated device while the subject is supine or semi-supine. Manual techniques will be used only if an automated device is not available. Blood pressure and pulse measurements should be preceded by at least 5 minutes of rest for the subject in a quiet setting without distractions (e.g., television, cell phones). An abnormal blood pressure value at screening may be repeated once after 5 minutes of relaxation to determine the subject's eligibility. Blood pressure was recorded using the same arm and position (supine or semi-supine) throughout the study, where possible. Vital signs (to be taken before blood collection for laboratory tests) consisted of 1 pulse and 3 blood pressure measurements (3 consecutive blood pressure readings will be recorded at intervals of at least 1 minute). The average of the 3 blood pressure readings was recorded in the CRF. A pulse oximeter was used to measure peripheral capillary oxygen saturation (SpO2) continuously from pre-dose until 4-hours post-dose. A pulse oximeter was clipped onto the finger or foot of the subject, and light will be sent through the finger or foot and measured on the other side.
In these tables, baseline value is defined as the last non-missing value prior to study drug administration.

rats [3] = experiment: Alcohol tolerance; type: in vivo
CYP2C19 = CYP2C19 (Homo sapiens, UniProt P33261); experiment: In vitro CYP inhibition
Sequence of CYP2C19 (P33261 whole entry): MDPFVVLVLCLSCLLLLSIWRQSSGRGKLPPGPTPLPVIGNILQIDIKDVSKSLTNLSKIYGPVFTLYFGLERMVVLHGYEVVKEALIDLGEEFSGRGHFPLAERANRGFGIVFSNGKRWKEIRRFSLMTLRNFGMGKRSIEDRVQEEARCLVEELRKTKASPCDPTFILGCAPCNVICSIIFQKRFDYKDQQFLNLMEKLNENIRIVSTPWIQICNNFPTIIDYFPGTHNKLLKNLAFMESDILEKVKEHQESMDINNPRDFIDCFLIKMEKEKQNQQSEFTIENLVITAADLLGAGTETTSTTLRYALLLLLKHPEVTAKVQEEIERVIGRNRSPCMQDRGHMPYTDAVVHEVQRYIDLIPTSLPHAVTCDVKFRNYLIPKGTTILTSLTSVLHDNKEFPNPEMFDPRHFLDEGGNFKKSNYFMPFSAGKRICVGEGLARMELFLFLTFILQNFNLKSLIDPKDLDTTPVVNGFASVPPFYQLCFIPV

Q: With `CN[C@@]1(c2ccccc2Cl)CCCCC1=O.Cl` [R(−)-ketamine, (2R)-2-(2-chlorophenyl)-2-(methylamino)cyclohexan-1-one] as the compound, how does the “Anhedonic or negative affective side effects” value (rats [1]) read?
A: no anhedonic or negative affective side effects

Q: And the “Oxygen Saturation, Max” value ([2]; 30 mg, Day 1, 15 minutes)?
A: 100%

Q: What about the “Oxygen Saturation, Mean” value ([2]; 30 mg, Day 1, 15 minutes) of the same compound?
A: 98.3%

Q: And the “Oxygen Saturation, Median” value ([2]; 30 mg, Day 1, 15 minutes)?
A: 98.0%

Q: And the “Oxygen Saturation, Min” value ([2]; 30 mg, Day 1, 15 minutes)?
A: 96%

Q: What about the “Oxygen Saturation, Max” value ([2]; 30 mg, Day 1, 40 minutes) of the same compound?
A: 99%

Q: And the “Oxygen Saturation, Mean” value ([2]; 30 mg, Day 1, 40 minutes)?
A: 98.3%

Q: What about the “Oxygen Saturation, Median” value ([2]; 30 mg, Day 1, 40 minutes) of the same compound?
A: 98.0%

Q: And the “Oxygen Saturation, Min” value ([2]; 30 mg, Day 1, 40 minutes)?
A: 96%

Q: What about the “Oxygen Saturation, Max” value ([2]; 30 mg, Day 1, 60 minutes) of the same compound?
A: 100%

Q: And the “Oxygen Saturation, Mean” value ([2]; 30 mg, Day 1, 60 minutes)?
A: 98.2%

Q: And the “Oxygen Saturation, Median” value ([2]; 30 mg, Day 1, 60 minutes)?
A: 98.0%

Q: What about the “Oxygen Saturation, Min” value ([2]; 30 mg, Day 1, 60 minutes) of the same compound?
A: 96%

Q: What about the “Oxygen Saturation, Max” value ([2]; 30 mg, Day 1, 2 hours) of the same compound?
A: 100%

Q: What about the “Oxygen Saturation, Mean” value ([2]; 30 mg, Day 1, 2 hours) of the same compound?
A: 98.4%

Q: What about the “Oxygen Saturation, Median” value ([2]; 30 mg, Day 1, 2 hours) of the same compound?
A: 99.0%

Q: And the “Oxygen Saturation, Min” value ([2]; 30 mg, Day 1, 2 hours)?
A: 97%

Q: What about the “Oxygen Saturation, Max” value ([2]; 30 mg, Day 1, 4 hours) of the same compound?
A: 100%

Q: And the “Oxygen Saturation, Mean” value ([2]; 30 mg, Day 1, 4 hours)?
A: 98.3%

Q: And the “Oxygen Saturation, Median” value ([2]; 30 mg, Day 1, 4 hours)?
A: 98.0%

Q: What about the “Oxygen Saturation, Min” value ([2]; 30 mg, Day 1, 4 hours) of the same compound?
A: 96%

Q: And the “Oxygen Saturation, Change from Baseline, Max” value ([2]; 30 mg, to Day 1, 15 minutes)?
A: 2%

Q: What about the “Oxygen Saturation, Change from Baseline, Mean” value ([2]; 30 mg, to Day 1, 15 minutes) of the same compound?
A: −0.3%

Q: What about the “Oxygen Saturation, Change from Baseline, Median” value ([2]; 30 mg, to Day 1, 15 minutes) of the same compound?
A: 0.0%

Q: What about the “Oxygen Saturation, Change from Baseline, Min” value ([2]; 30 mg, to Day 1, 15 minutes) of the same compound?
A: −3%

Q: And the “Oxygen Saturation, Change from Baseline, Max” value ([2]; 30 mg, to Day 1, 40 minutes)?
A: 2%

Q: And the “Oxygen Saturation, Change from Baseline, Mean” value ([2]; 30 mg, to Day 1, 40 minutes)?
A: −0.4%

Q: And the “Oxygen Saturation, Change from Baseline, Median” value ([2]; 30 mg, to Day 1, 40 minutes)?
A: 0.0%

Q: And the “Oxygen Saturation, Change from Baseline, Min” value ([2]; 30 mg, to Day 1, 40 minutes)?
A: −2%

Q: What about the “Oxygen Saturation, Change from Baseline, Max” value ([2]; 30 mg, to Day 1, 60 minutes) of the same compound?
A: 1%

Q: And the “Oxygen Saturation, Change from Baseline, Mean” value ([2]; 30 mg, to Day 1, 60 minutes)?
A: −0.5%

Q: What about the “Oxygen Saturation, Change from Baseline, Median” value ([2]; 30 mg, to Day 1, 60 minutes) of the same compound?
A: 0.0%

Q: What about the “Oxygen Saturation, Change from Baseline, Min” value ([2]; 30 mg, to Day 1, 60 minutes) of the same compound?
A: −3%

Q: What about the “Oxygen Saturation, Change from Baseline, Max” value ([2]; 30 mg, to Day 1, 2 hours) of the same compound?
A: 3%

Q: And the “Oxygen Saturation, Change from Baseline, Mean” value ([2]; 30 mg, to Day 1, 2 hours)?
A: −0.2%

Q: And the “Oxygen Saturation, Change from Baseline, Median” value ([2]; 30 mg, to Day 1, 2 hours)?
A: 0.0%

Q: What about the “Oxygen Saturation, Change from Baseline, Min” value ([2]; 30 mg, to Day 1, 2 hours) of the same compound?
A: −2%

Q: What about the “Oxygen Saturation, Change from Baseline, Max” value ([2]; 30 mg, to Day 1, 4 hours) of the same compound?
A: 3%

Q: What about the “Oxygen Saturation, Change from Baseline, Mean” value ([2]; 30 mg, to Day 1, 4 hours) of the same compound?
A: −0.4%

Q: And the “Oxygen Saturation, Change from Baseline, Median” value ([2]; 30 mg, to Day 1, 4 hours)?
A: 0.0%

Q: What about the “Oxygen Saturation, Change from Baseline, Min” value ([2]; 30 mg, to Day 1, 4 hours) of the same compound?
A: −3%

Q: And the “Oxygen Saturation, Max” value ([2]; 60 mg, Day 1, 15 minutes)?
A: 100%

Q: And the “Oxygen Saturation, Mean” value ([2]; 60 mg, Day 1, 15 minutes)?
A: 98.2%

Q: And the “Oxygen Saturation, Median” value ([2]; 60 mg, Day 1, 15 minutes)?
A: 98.0%

Q: What about the “Oxygen Saturation, Min” value ([2]; 60 mg, Day 1, 15 minutes) of the same compound?
A: 96%

Q: And the “Oxygen Saturation, Max” value ([2]; 60 mg, Day 1, 40 minutes)?
A: 100%

Q: What about the “Oxygen Saturation, Mean” value ([2]; 60 mg, Day 1, 40 minutes) of the same compound?
A: 98.1%

Q: And the “Oxygen Saturation, Median” value ([2]; 60 mg, Day 1, 40 minutes)?
A: 98.0%

Q: And the “Oxygen Saturation, Min” value ([2]; 60 mg, Day 1, 40 minutes)?
A: 95%

Q: And the “Oxygen Saturation, Max” value ([2]; 60 mg, Day 1, 60 minutes)?
A: 100%

Q: What about the “Oxygen Saturation, Mean” value ([2]; 60 mg, Day 1, 60 minutes) of the same compound?
A: 98.1%

Q: And the “Oxygen Saturation, Median” value ([2]; 60 mg, Day 1, 60 minutes)?
A: 98.0%

Q: What about the “Oxygen Saturation, Min” value ([2]; 60 mg, Day 1, 60 minutes) of the same compound?
A: 95%

Q: What about the “Oxygen Saturation, Max” value ([2]; 60 mg, Day 1, 2 hours) of the same compound?
A: 100%

Q: What about the “Oxygen Saturation, Mean” value ([2]; 60 mg, Day 1, 2 hours) of the same compound?
A: 98.2%

Q: What about the “Oxygen Saturation, Median” value ([2]; 60 mg, Day 1, 2 hours) of the same compound?
A: 98.0%

Q: What about the “Oxygen Saturation, Min” value ([2]; 60 mg, Day 1, 2 hours) of the same compound?
A: 97%

Q: And the “Oxygen Saturation, Max” value ([2]; 60 mg, Day 1, 4 hours)?
A: 100%

Q: And the “Oxygen Saturation, Mean” value ([2]; 60 mg, Day 1, 4 hours)?
A: 98.3%

Q: And the “Oxygen Saturation, Median” value ([2]; 60 mg, Day 1, 4 hours)?
A: 99.0%

Q: What about the “Oxygen Saturation, Min” value ([2]; 60 mg, Day 1, 4 hours) of the same compound?
A: 96%

Q: What about the “Oxygen Saturation, Change from Baseline, Max” value ([2]; 60 mg, to Day 1, 15 minutes) of the same compound?
A: 4%

Q: And the “Oxygen Saturation, Change from Baseline, Mean” value ([2]; 60 mg, to Day 1, 15 minutes)?
A: 0.0%

Q: And the “Oxygen Saturation, Change from Baseline, Median” value ([2]; 60 mg, to Day 1, 15 minutes)?
A: 0.0%

Q: What about the “Oxygen Saturation, Change from Baseline, Min” value ([2]; 60 mg, to Day 1, 15 minutes) of the same compound?
A: −2%

Q: And the “Oxygen Saturation, Change from Baseline, Max” value ([2]; 60 mg, to Day 1, 40 minutes)?
A: 2%

Q: And the “Oxygen Saturation, Change from Baseline, Mean” value ([2]; 60 mg, to Day 1, 40 minutes)?
A: −0.1%

Q: And the “Oxygen Saturation, Change from Baseline, Median” value ([2]; 60 mg, to Day 1, 40 minutes)?
A: 0.0%

Q: And the “Oxygen Saturation, Change from Baseline, Min” value ([2]; 60 mg, to Day 1, 40 minutes)?
A: −2%

Q: And the “Oxygen Saturation, Change from Baseline, Max” value ([2]; 60 mg, to Day 1, 60 minutes)?
A: 3%

Q: What about the “Oxygen Saturation, Change from Baseline, Mean” value ([2]; 60 mg, to Day 1, 60 minutes) of the same compound?
A: −0.1%

Q: What about the “Oxygen Saturation, Change from Baseline, Median” value ([2]; 60 mg, to Day 1, 60 minutes) of the same compound?
A: 0.0%

Q: And the “Oxygen Saturation, Change from Baseline, Min” value ([2]; 60 mg, to Day 1, 60 minutes)?
A: −4%

Q: What about the “Oxygen Saturation, Change from Baseline, Max” value ([2]; 60 mg, to Day 1, 2 hours) of the same compound?
A: 3%

Q: What about the “Oxygen Saturation, Change from Baseline, Mean” value ([2]; 60 mg, to Day 1, 2 hours) of the same compound?
A: 0.0%

Q: What about the “Oxygen Saturation, Change from Baseline, Median” value ([2]; 60 mg, to Day 1, 2 hours) of the same compound?
A: 0.0%

Q: And the “Oxygen Saturation, Change from Baseline, Min” value ([2]; 60 mg, to Day 1, 2 hours)?
A: −2%

Q: What about the “Oxygen Saturation, Change from Baseline, Max” value ([2]; 60 mg, to Day 1, 4 hours) of the same compound?
A: 1%

Q: And the “Oxygen Saturation, Change from Baseline, Mean” value ([2]; 60 mg, to Day 1, 4 hours)?
A: 0.2%

Q: What about the “Oxygen Saturation, Change from Baseline, Median” value ([2]; 60 mg, to Day 1, 4 hours) of the same compound?
A: 0.0%

Q: And the “Oxygen Saturation, Change from Baseline, Min” value ([2]; 60 mg, to Day 1, 4 hours)?
A: −2%

Q: And the “Effect on alcohol tolerance” value (rats [3])?
A: mitigated the effects of alcohol tolerance

Q: What about the CYP2C19 inhibition (CYP2C19) of the same compound?
A: inhibitor
